Laboratory results from patent US4876260A, “Oxathiolanes” (State of Israel, Israel Institute of Biological Research, priority 1988, dated 1989).
Several values for one entry are separate records, joined by “and”; a condition that tells them apart may be missing. Identical values can stand only once. Entries after “also recorded” stand apart in the source; their conditions may differ. Like-named read-outs stand apart in the source and are kept apart here.

Columns and labels:
[1] = test system: mice; assay: Pharmacodynamic profile and general toxicity in mice; type: in vivo, CD-1 mice
Description: Male white mice of the CD-1 strain supplied by Charles River Ltd. (U.K.) were used throughout. An acclimatization period of at least three days was allowed between arrival and commencement of a particular experimental series. The animals were fed a complete commercial pelleted rodent diet without restriction during the acclimatization and study periods. Animals had free access to tap water. Body weights during testing were mostly within 20-28 g.
Test materials were prepared as aqueous solutions in physiological saline (0.9% NaCl), up to a maximum concentration of 10 mg./ml. All materials were freshly prepared on the morning prior to each dosing session. Dosages were expressed gravimetrically (mg./kg.), in terms of the materials as received.
Groups of mice (mostly n=5) received either i.v. or oral administration of the test materials at various dose levels. Dose volumes appropriate for respective dose levels selected, were determined for each animal according to body weights on the day of dosing. Any behavioral changes occurring during one to two hours after administration, as well as incidence of death up to 24 hours after dosing were recorded.

[2] = biological target: T1, M1 muscarinic receptors (3H-PZ sites, forebrain) (Rattus norvegicus, UniProt P08482); assay: Displacement of 3H-Pirenzepine (3H-PZ, selective M1 antagonist) from rat forebrain homogenate; type: binding
T1 sequence (P08482 1-460): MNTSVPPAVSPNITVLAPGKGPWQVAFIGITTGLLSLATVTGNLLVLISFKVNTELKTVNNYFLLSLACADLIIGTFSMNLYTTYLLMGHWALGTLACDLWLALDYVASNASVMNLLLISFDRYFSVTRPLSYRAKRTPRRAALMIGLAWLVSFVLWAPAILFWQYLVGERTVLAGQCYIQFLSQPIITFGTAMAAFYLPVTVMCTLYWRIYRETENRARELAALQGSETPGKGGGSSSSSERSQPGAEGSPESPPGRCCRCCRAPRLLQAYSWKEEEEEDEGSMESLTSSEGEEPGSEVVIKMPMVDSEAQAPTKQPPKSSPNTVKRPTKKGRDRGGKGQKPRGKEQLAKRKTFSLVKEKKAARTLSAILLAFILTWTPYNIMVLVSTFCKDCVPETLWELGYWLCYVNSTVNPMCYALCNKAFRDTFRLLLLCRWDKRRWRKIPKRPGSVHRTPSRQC

[3] = test system: ACh-induced contractions of guinea-pig ileum; assay: Blocking of ACh-induced contractions of isolated guinea-pig ileum; settings: listed as AF122A
Text: (§1) From this Table, it appears that compounds (III) were not so effective in contracting the guinea pig ileum preparation.

[4] = test system: isolated guinea-pig ileum; assay: Contraction of isolated guinea-pig ileum preparation; settings: listed as AF122A
Text: as §1

[5] = biological target: muscarinic receptors (3H-CD sites, M1 and M2, forebrain); assay: Displacement of 3H-cis-dioxolane (3H-CD, non-selective M1 and M2 agonist) from rat forebrain homogenate; type: binding
[6] = biological target: muscarinic receptors (3H-QNB sites, frontal cortex); type: binding, rat; settings: (b') frontal cortex
[7] = biological target: T2, M1 muscarinic receptors (3H-PZ sites, frontal cortex) (Rattus norvegicus, UniProt P08482); assay: Displacement of 3H-PZ from rat frontal cortex homogenate; type: binding; settings: for a':c', Ki(3H-PZ):Ki(3H-CD): (g) frontal cortex ratio
T2 sequence (P08482 1-460): T1 sequence (P08482 1-460)

[8] = biological target: T3, muscarinic receptors (3H-QNB sites, cerebellum, mainly M2) (Rattus norvegicus, UniProt P10980); assay: biochemical; type: binding; settings: Ki(3H-QNB), (b") cerebellum
T3 sequence (P10980 1-466): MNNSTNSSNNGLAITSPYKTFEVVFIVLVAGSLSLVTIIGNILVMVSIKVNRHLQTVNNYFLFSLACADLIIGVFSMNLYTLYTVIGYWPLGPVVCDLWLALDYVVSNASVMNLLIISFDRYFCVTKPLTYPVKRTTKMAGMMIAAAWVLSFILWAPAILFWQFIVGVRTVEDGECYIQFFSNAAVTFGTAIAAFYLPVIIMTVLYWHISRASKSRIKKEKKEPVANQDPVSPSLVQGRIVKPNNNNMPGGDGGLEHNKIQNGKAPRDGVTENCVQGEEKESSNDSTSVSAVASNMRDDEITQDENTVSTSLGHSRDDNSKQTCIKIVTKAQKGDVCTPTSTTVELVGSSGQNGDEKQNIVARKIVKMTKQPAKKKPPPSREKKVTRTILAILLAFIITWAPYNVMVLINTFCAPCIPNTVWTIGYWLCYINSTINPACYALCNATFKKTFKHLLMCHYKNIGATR

[9] = test system: muscarinic receptors (3H-QNB sites, cerebellum, mainly M2); assay: biochemical; type: binding, rat; settings: for b':b": (k) Ki(3H-QNB) frontal cortex : Ki(3H-QNB) cerebellum
[10] = biological target: muscarinic receptors (3H-CD sites, frontal cortex); assay: Displacement of 3H-CD from rat frontal cortex homogenate; type: binding; settings: (c') frontal cortex
[11] = test system: all muscarinic receptors; settings: cited from earlier work
[12] = biological target: muscarinic receptors (3H-QNB sites, M1 and M2, forebrain); type: binding, rat; settings: (b) forebrain
[13] = 25 mg/kg i.v., listed as (±)-III AF122A
[14] = 100 mg/kg p.o., listed as (±)-III AF122A
[15] = 200 mg/kg p.o., listed as (±)-III AF122A

## CC1OCC2(CN3CCC2CC3)S1 (stereo not shown) [compound 11, 2-methylspiro(1,3-oxathiolan-4,3')quinuclidine]
[1]; 10 mg/kg i.v.
  Analgesia (nonresponsiveness to tail pinch), No. affected/total treated: 2/5
  Vocalization, No. affected/total treated: 2/5
[1]; 10 mg/kg i.v., listed as (±)-III AF122A
  Mortality, No. dead/total treated: 0/5
[1]; 25 mg/kg i.v.
  Vocalization, No. affected/total treated: 3/6
[1]; [13]
  Analgesia (nonresponsiveness to tail pinch), No. affected/total treated: 4/5
  Convulsive seizures, No. affected/total treated: 1/6
  Exophthalmus, No. affected/total treated: 3/6
  Mortality, No. dead/total treated: 1/6
  Respiratory distress, No. affected/total treated: 4/6
  Tremors, No. affected/total treated: 3/6
[1]; 25 mg/kg i.v., m = minutes
  Mortality, time after drug administration: 1 m
[1]; 50 mg/kg i.v.
  Convulsive seizures, No. affected/total treated: 2/2
  Mortality, No. dead/total treated: 2/2
  Mortality, time after drug administration: 5 s
[1]; 50 mg/kg p.o.
  Mortality, No. dead/total treated: 0/5
[1]; 100 mg/kg i.v.
  Mortality, No. dead/total treated: 2/2
[1]; 100 mg/kg i.v., immed = immediately
  Mortality, time after drug administration: immed
[1]; [14]
  Mortality, No. dead/total treated: 0/5
  Tremors, No. affected/total treated: 5/5
[1]; 200 mg/kg p.o.
  Mortality, time after drug administration: 30 s
[1]; [15]
  Convulsive seizures, No. affected/total treated: 5/5
  Mortality, No. dead/total treated: 5/5
  Tremors, No. affected/total treated: 5/5
[2]; from Tables 2A, 2B, 2C
  M1 selectivity (in words): high M1 selectivity
[3]
  Effect on ACh-induced contractions (in words): perturbed the ACh-induced contractions when applied in relatively high concentrations
[4]
  Contraction of guinea pig ileum (in words): did not produce any significant contractions in the concentration range within which it binds to the brain receptors
[5]; Table 2B column (c'), footnote *forebrain
  Ki: 750 nM
[6]
  Ki: 9700 ± 2300 nM
[7]
  a':b', Ki(3H-PZ):Ki(3H-QNB): 0.09
  a':c', Ki(3H-PZ):Ki(3H-CD): 1.0
[7]; (a') frontal cortex, read-out: Ki(3H-PZ)
  Ki: 840 ± 30 nM
[8]
  Ki: 19800 ± 6100 nM
[9]
  b':b": 0.49

## O=C1CCCN1CC#CCN1CCCC1 [compound 1, Oxotremorine]
[2]
  order of the ratios Ki(3H-PZ):Ki(3H-CD): oxotremorine >McN-A-343>compound # 3; also recorded: weakest relative affinity towards M1 binding sites
[2]; (d) forebrain ratio
  a:b, Ki(3H-PZ):Ki(3H-QNB): 0.29
[2]; forebrain, among oxotremorine, McN-A-343, compound #3
  order of the ratios Ki(3H-PZ):Ki(3H-QNB): McN-A-343 >compound #3>oxotremorine; also recorded: relatively stronger than McN-A-343 and compound #3
[10]
  Ki: 1.6 ± 0.4 nM
[5]; (c) forebrain, * in M × 10^-10
  Ki: 0.96 ± 0.42 nM
[11]
  affinity towards all muscarinic receptors (in words): greater than those of the weaker agonists McN-A-343 or compound #3
[6]
  Ki: 2200 ± 300 nM
[7]; (f) frontal cortex ratio
  a':b', Ki(3H-PZ):Ki(3H-QNB): 0.1
[7]
  a':c', Ki(3H-PZ):Ki(3H-CD): 137.5
[7]; Ki(3H-PZ)
  Ki: 220 ± 70 nM
[8]
  Ki: 700 nM and 1310 nM
[9]; (h) Ki(3H-PZ) forebrain : Ki(3H-QNB) cerebellum
  a:b": 0.86
[9]; (j) Ki(3H-QNB) forebrain : Ki(3H-QNB) cerebellum
  b:b": 3.00
[9]
  b':b": 1.69
[9]; FB=forebrain, CER=cerebellum
  order of M1 versus M2 selectivity, IC50 (FB):IC50 (CER) or IC50 (frontal cortex):IC50 (CER): compound #4>compound #3>oxotremorine
[12]
  Ki: 2100 ± 300 nM
